Results from patent US20150297615A1, “ANDROGEN RECEPTOR INACTIVATION CONTRIBUTES TO ANTITUMOR EFFICACY OF CYP17 INHIBITORS IN PROSTATE CANCER” (UNIVERSITY OF MARYLAND, BALTIMORE, priority 2008, published 2015).
Numbering of substitutions follows the chain as printed. Where two headings read alike, the source gives them in different places.

What was measured:
T877A AR = target: T1, T877A AR (Homo sapiens, UniProt P10275, T878A); experiment: Competitive inhibition of [3H]R1881 binding, T877A AR (LNCaP cells); details: read-out: T877A (LNCaP), inhibition of [3H]R1881 binding as symbol
T1 construct: endogenous in cells; host or cells: LNCaP cells
T1 sequence (P10275 1-920 T878A): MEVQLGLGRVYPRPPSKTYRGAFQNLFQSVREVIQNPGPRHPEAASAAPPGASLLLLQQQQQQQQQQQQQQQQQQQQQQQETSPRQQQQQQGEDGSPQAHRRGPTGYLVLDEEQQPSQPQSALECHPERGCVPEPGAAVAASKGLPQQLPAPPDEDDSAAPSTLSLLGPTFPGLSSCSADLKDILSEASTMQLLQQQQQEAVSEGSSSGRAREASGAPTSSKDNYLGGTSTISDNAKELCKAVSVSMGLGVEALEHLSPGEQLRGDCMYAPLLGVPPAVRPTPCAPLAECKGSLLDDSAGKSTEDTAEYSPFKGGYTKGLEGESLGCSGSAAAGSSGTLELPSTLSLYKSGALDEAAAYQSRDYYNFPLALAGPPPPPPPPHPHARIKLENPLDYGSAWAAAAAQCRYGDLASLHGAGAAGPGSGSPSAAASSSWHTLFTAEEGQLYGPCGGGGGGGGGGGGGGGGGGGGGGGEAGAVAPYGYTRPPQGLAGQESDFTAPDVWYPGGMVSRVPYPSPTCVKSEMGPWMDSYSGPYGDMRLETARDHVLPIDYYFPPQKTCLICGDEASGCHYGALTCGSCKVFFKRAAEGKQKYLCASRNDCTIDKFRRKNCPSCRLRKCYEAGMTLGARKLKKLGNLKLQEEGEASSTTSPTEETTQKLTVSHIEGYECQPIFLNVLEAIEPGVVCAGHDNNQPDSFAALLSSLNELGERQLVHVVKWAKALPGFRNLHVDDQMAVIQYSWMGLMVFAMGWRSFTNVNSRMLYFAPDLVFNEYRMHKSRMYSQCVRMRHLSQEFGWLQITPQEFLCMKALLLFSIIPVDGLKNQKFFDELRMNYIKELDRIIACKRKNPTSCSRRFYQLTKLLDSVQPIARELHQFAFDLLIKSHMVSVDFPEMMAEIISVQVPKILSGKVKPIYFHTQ
Experimental: (§1) In order to determine if the CYP17 inhibitors interact with the AR, competitive binding assays were performed as described previously. The ability of the test compounds (1 nM-10 μM) to displace [^3H]R1881 (5.0 nM) from the AR was determined in LAPC4 cells (wild-type AR), PC3 cells transfected with wild-type AR (PC3-AR), LNCaP cells which express an endogenous AR with a mutation in the ligand binding domain (T877A), and PC3 cells transfected with an AR containing a mutation in the DNA binding domain (T575A).
(§2) The ability of the test compounds to displace [^3H]R1881 (5.0 nM) from the androgen receptor was determined in LAPC4 cells (wild-type AR), PC3 cells transfected with wild-type AR, LNCaP cells which express an endogenous AR with a mutation in the ligand binding domain (T877A), and PC3 cells transfected with an AR containing a mutation in the DNA binding domain (T575A). Cells were plated (2-3×10^5) in 24 well multiwell dishes in steroid-free medium and allowed to attach. The following day the medium was replaced with serum-free, steroid free RPMI supplemented with 0.1% BSA and containing [^3H]R1881 (5 nM), test compounds (1 nM-10 μM), and 1 μM triamcinolone acetonide to saturate progesterone and glucocorticoid receptors. Following a 2 hour incubation period at 37° C., cells were washed twice with ice-cold DPBS and solubilized in DPBS containing 0.5% SDS and 20% glycerol.

wild-type AR = target: T2, wild-type AR (Homo sapiens, UniProt P10275); experiment: Competitive inhibition of [3H]R1881 binding, wild-type AR (LAPC4/PC3-AR cells); details: read-out: wild-type (LAPC4/PC3-AR), inhibition of [3H]R1881 binding as symbol
T2 construct: the wild-type AR expressed endogenously in LAPC4 cells; endogenous in cells; host or cells: LAPC4 cells (endogenous) and PC3-AR cells (PC-3 stably transfected with human wild-type AR)
T2 sequence (P10275 1-920): T1 sequence (P10275 1-920 T878A) with A878T
Experimental: as §1, §2

LNCaP cells = experiment: Cell proliferation assay (XTT), LNCaP cells; details: Homo sapiens, 168 h
Experimental: (§3) To determine the effect of steroids and novel compounds on cell proliferation, each cell type was transferred into steroid-free medium three days prior to the start of the experiments (steroid-free medium consisted of phenol red free RPMI supplemented with 5% dextran-coated, charcoal treated serum and 1% penicillin/streptomycin solution). Growth studies were then performed by plating cells (1.5×10^4cells/well) in 24-well multiwell dishes (Corning, Inc. Corning, N.Y.). After a 24 hour attachment period, the medium was aspirated and replaced with steroid-free medium containing vehicle or the indicated concentrations of androgens and novel compounds (1 nM-10 μM). Control wells were treated with vehicle (ethanol). […] The medium was changed every three days and the numbers of viable cells were compared by MTT or XTT (LNCaP) assay on the seventh day.
(§4) For the MTT procedure, following incubation of cells for the above mentioned time, 0.5 mg/ml MTT was added to each well and incubated at 37° C. for three hours. Following incubation, the medium was aspirated completely, with care taken not to disturb the formazan crystals. DMSO (500 μl) was used to solubilize these crystals. After slight shaking, the plates were read at 540 nm with a Victor 1420 scanning multi-well spectrophotometer. All results represent the average of a minimum of three wells. Additional control consisted of medium alone with no cells. XTT was performed essentially as MTT, with the deletion of the solubilization step and was preferred for the LNCaP cells that adhere poorly to the plates.
(§5) LNCaP cells were seeded at 15,000 cells/well in 24 well multi-well plates, and LAPC4 cells were seeded at 15,000 cells/well. […] The number of viable cells was compared by MTT assay (LAPC4) or XTT assay (LNCaP) on the 7th day.

LAPC4 cells = experiment: Cell proliferation assay (MTT), LAPC4 cells; details: Homo sapiens, LAPC4, 168 h
Experimental: as §3, §4, §5

[1] = read-out: LNCaP IC50 (μM), DHT +
[2] = read-out: LNCaP IC50 (μM), DHT −
[3] = read-out: LAPC4 IC50 (μM), DHT +
[4] = read-out: LAPC4 IC50 (μM), DHT −

Row | SMILES | inhibition at 10 µM (T877A AR) | inhibition at 10 µM (wild-type AR) | IC50 (LNCaP cells; [1]) | IC50 (LNCaP cells; [2]) | IC50 (LAPC4 cells; [3]) | IC50 (LAPC4 cells; [4])
1 | C[C@]12CC[C@H](O)CC1=CC[C@@H]1[C@@H]2CC[C@]2(C)C(c3cccnc3)=CC[C@@H]12 [Abiraterone] | < 20% | < 20% |  |  |  | 
2 | CC(O)(CS(=O)(=O)c1ccc(F)cc1)C(=O)Nc1ccc(C#N)c(C(F)(F)F)c1 (stereo not shown) [Casodex, Bicalutamide] |  |  | 8.6 µM | 4.6 µM | 10 µM | 9 µM
3 | C[C@]12CC[C@H](O)CC1=CC[C@@H]1[C@@H]2CC[C@]2(C)C(n3cnc4ccccc43)=CC[C@@H]12 [VN/124-1, 3β-hydroxy-17-(1H-benzimidazole-1-yl)androsta-5,16-diene] |  |  | 6 µM | 2.6 µM | 3.2 µM | 4 µM
